From US8993626B2, “Methods of treatment using sterculic acid” (The United States of America, as represented by the …, priority 2010, dated 2015) come the findings set out here.

The test system of test [1] is ARPE-19 cells. As to the kind of experiment: Fatty acids against 7KCh-mediated cell death (CCK8). The format is cell-based. The conditions noted are these: for CONC. (μM): lowest concentration required to maintain full cell viability against 7KCh: 12 μM 7KCh for 24 hr, tested 0.1, 0.5, 1, 5 and 10 μM. Here is the method:
FIGS. 12A-12C depict ARPE-19 cell viability in response to 12 μM 7KCh with or without 0.1-5 μM (A) sterculic acid and (B) stearic acid after 24 hr treatments. Error bars indicate the standard deviations. n=3-5. Two-tailed Student's t-test. (C) Representative images of changes in cell morphology in response to 12 μM 7KCh with or without 1 μM sterculic acid and stearic acid after 24 hr treatments.
(§1) ARPE-19 cells were seeded in 24-well plates with 1×10^5 cells per well and allowed to recover for 16-24 hr. Once confluency reached approximately 90%, the effect of the fatty acids against 7KCh-mediated cell death was examined 24 hr after incubation in serum-free medium with 12 μM 7KCh. Fatty acids were tested at 0.1, 0.5, 1, 5 and 10 μM concentrations. The effects of the fatty acids against 7KCh-mediated inflammation and ER stress were examined by incubating cells in 1 μM fatty acids with either 8 μM 7KCh (24 hr for quantitative real-time PCR (qRT-PCR), 24 and 48 hr for immunoblot), or 6 μM 7KCh for 48 hr (for ELISA). Three individual experiments were performed for each treatment with quadruplicate measurements performed for each experiment in 24-well plates.
The cell viability was determined by the dehydrogenase activity of the ARPE-19 cells using Cell Counting Kit-8 (CCK8, Dojindo, Gaithersburg, Md.) according to manufacturer's protocol.
The lowest effective concentrations of fatty acids that offset the 7KCh-mediated cell death were determined. […] Table 3 lists the lowest concentrations of these fatty acids required to maintain full cell viability against 12 μM 7KCh treatment. All unsaturated fatty acids protected against 7KCh-induced cell death. […] DHA, α-linolenic, and linoleic acid prevented 7KCh-mediated cell death at 5 μM but the rest of unsaturated fatty acids and dihydrosterculic acid required 10 μM to be protective.

The subject of test [2] is ARPE-19 cells. In words: qRT-PCR of inflammatory cytokines and ER stress markers, 7KCh-mediated inflammation. The following applies: for effect on 7KCh-mediated mRNA induction (inflammatory response): 1 μM fatty acid + 8 μM 7KCh, FIG. 13; for effect on 7KCh-mediated mRNA induction (inflammatory response) / VEGF mRNA expression / IL-6 mRNA expression / GRP78 mRNA expression / CHOP mRNA expression: 24 hr; for VEGF mRNA expression: FIG. 13A; for IL-6 mRNA expression: FIG. 13B; for GRP78 mRNA expression: FIG. 13C; for CHOP mRNA expression: FIG. 13D. The format is cell-based. The procedure: FIGS. 13A-13D depict mRNA expressions of (A) VEGF, (B) IL-6, (C) GRP78, and (D) CHOP in response to 8 μM 7KCh with or without 1 μM long-chain fatty acids. Error bars indicate the standard deviations. *p<0.05 comparing to 7KCh, n=3. Two-tailed Student's t-test.
FIGS. 14A-14D depict mRNA expressions of (A) VEGF, (B) IL-1b, (C) IL-6, and (D) IL-8 in response to 8 μM 7KCh, 1 μM sterculic acid, 1 μM stearic acid, or the combinations of 7KCh with either sterculic acid or stearic acid. Error bars indicate the standard deviations. *p<0.05 comparing to 7KCh, n=4. Two-tailed Student's t-test.
FIGS. 15A-15D depict mRNA expressions of (A) TNF-α, (B) TGF-β1, (C) GRP78, and (D) CHOP in response to 8 μM 7KCh, 1 μM sterculic acid, 1 μM stearic acid, or the combinations of 7KCh with either sterculic acid or stearic acid. Error bars indicate the standard deviations. *p<0.05 comparing to 7KCh, n=3-4. Two-tailed Student's t-test.
as §1
(§2) The RNA was extracted using RNeasy Mini Kit (Qiagen, Valencia, Calif.). The reverse transcription was performed with reagents and kits from Invitrogen. Quantification of mRNA expression was performed using the Taqman gene expression assays and the following primers (VEGFa, Hs00173626_m1; IL-1β, Hs01555413_m1; IL-6, Hs00174131_m1; IL-8, Hs00174103_m1; IκBα, Hs00153283_m1; GRP78, Hs99999174_m1; CHOP, Hs01090850_m1; NOX2, Hs00166163_m1; NOX4, Hs01558199_m1; SCD, Hs00748952 s1; TNF-α, Hs00174128_m1; TGF-β1, Hs00998133_m1; GAPD, 4352934e). GAPD expression was used as an endogenous standard. All qRT-PCR experiments were measured in triplicates in an ABI 7500 Real-Time PCR Instrument (Applied Biosystems, Foster City, Calif.). The results of each treatment were normalized and presented in percentage relative to the vehicle-only control.
(In qPCR the cycle at which signal appears reflects the starting amount.)

Test [3] deals with ARPE-19 cells. In words: ELISA of secreted VEGF, IL-6, IL-8 in conditioned medium. The following applies: 1 μM + 6 μM 7KCh, 48 hr. The class given is cell-based. Here is the method:
(§3) FIGS. 16A-16E depict the secreted protein levels of (A) VEGF, (B) IL-6, and (C) IL-8 were measure by ELISA 48 hr after treatment with 6 μM 7KCh, 1 μM sterculic acid, 1 μM stearic acid, or the combinations of 7KCh with either sterculic acid or stearic acid. Error bars indicate the standard deviations. *p<0.05 comparing to 7KCh, n=3. Two-tailed Student's t-test. The expressions of GRP78 and CHOP were shown by immunoblots (D) 24 hr or (E) 48 hr after treatment with 8 μM 7KCh, 1 μM sterculic acid, 1 μM stearic acid, or the combinations of 7KCh with either sterculic acid or stearic acid.
as §1
The levels of secreted VEGF, IL-6, IL-8, and TNF-α in conditioned medium of ARPE-19 cell cultures were measured 48 hr after treatments of 6 μM 7KCh and 1 μM fatty acids using the Quantkine ELISA kits from R&D systems (Minneapolis, Minn.). The protein levels were measured in triplicates. The ELISA results were quantified using an Envision multilable plate reader (PerkinElmer, Covina, Calif.) and presented in percentage relative to the vehicle-only control.
(In general: ELISA stands for enzyme-linked immunosorbent assay.)

For test [4], the system named is ARPE-19 cells. As to the kind of experiment: qRT-PCR of cytokines in TNF-α treated cells. The format is cell-based. The conditions noted are these: 24 hr. The procedure: FIGS. 17A-17D depict the mRNA expressions of (A) IL-1β, (B) IL-8, (C) IκBα, and (D) GRP78 in response to 2 ng/ml TNF-α, 1 μM sterculic acid, 1 μM stearic acid, or the combinations of TNF-α with either sterculic acid or stearic acid. n=3. Error bars indicate the standard deviations.
Tumor necrosis factor-alpha (TNF-α, Roche Diagnostics, Indianapolis, Ind.) was diluted in PBS to make 10 μg/ml stock solution and stored at −20° C. In order to test the anti-inflammation effect of fatty acids against TNF-α, ARPE-19 cells were treated with 2 ng/ml of TNF-α for 24 hr in serum-free medium with or without 1 μM fatty acids. The mRNA expressions of cytokines were then examined using qRT-PCR. Each treatment was performed three times with quadruplicate measurements in each experiment, in 24-well plates.
as §2

Test [5] concerns ARPE-19 cells. As to the kind of experiment: Immunoblots of CHOP and GRP78. The class given is cell-based. The conditions noted are these: 1 μM + 8 μM 7KCh, 24 hr. Here is the method: as §3, §1
Lysis of ARPE-19 cells was performed using MPER buffer solution (Thermo Fisher Scientific) containing Complete Protease Inhibitor Cocktail (Roche Diagnostics). A total of 10 μg protein samples of the cell lysate were separated by SDS-PAGE on 10% Bis-Tris gels (Invitrogen). The gels were blotted on to nitrocellulose membranes (Invitrogen). The proteins were probed with primary antibodies for CHOP (1:1000 dilution), GRP78 (1:1000), or GAPDH (1:2000) at 4° C. overnight. The membranes were then further incubated with anti-rabbit IgG, HRP-linked antibodies (1:2000 dilution) at room temperature for 1 hr. […]

For test [6], the system named is ARPE19 cells. As to the kind of experiment: Phase-contrast images of cells after co-treatment with 15 μM 7KCh. The format is cell-based, human. The following applies: 1 μM fatty acid + 15 μM 7KCh, 24 hr. The source says: FIG. 8 depicts phase-contrast images of ARPE19 cells at 24 hr after sterculic acid co-treatment with 7KCh.
The subject of test [7] is ARPE19 cells. In words: Cell Counting Kit-8 viability assay, 15 μM 7KCh-induced cytotoxicity. The following applies: 1 μM fatty acid + 15 μM 7KCh, 24 hr, CCK-8. In general terms: Tetrazolium assays rely on reduction of a dye to a coloured formazan, in cell work by metabolically active cells.
Experimental: 4×10^4 cells were seeded onto wells of a 96 well plate. […] Cell viability was determined as celluar dehydrogenase activity and expressed as the percentage of compound treated cells relative to that of untreated controls. error bar: standard deviation, n=4.
The kit allows sensitive colorimetric assays for the determination of the number of viable cells in cell proliferation and cytotoxicity assays. The amount of the formazan dye generated by the activity of dehydrogenases in cells is directly proportional to the number of living cells.
1) Cells were cultivated in a 96 well cell plate (Costar#3599, Corning Incorp, Corning, N.Y.).
2) The cell suspension (40,000 cells/100 μL) were added to 100 μL culture media per well and stood for 15 min at room temperature and cultured at 37° C. in a humidified 5% CO2 atmosphere.
3) Approximately 19 hr after seeding, when the cells were fully confluent, the cells were treated with either DMSO or 1 μM fatty acid in 200 μL of serum free media and subsequently added with 15 μM 7KCh in HPBCD. Then, the plate was swirled for mixing. The cells were also treated with DMSO and HPBCD, which served as vehicle control. The final DMSO and HPBCD concentrations in the media were in the range of 0.1% and 0.0675%, respectively.
Cell viability was expressed as the percentage of compound treated cells relative to that of untreated controls. Prior to measure cell viability, the cells were imaged live by Nikon TE 2000-U inverted fluorescent microscope.
Test [8] deals with ARPE19 cells. In words: CellTiter-Glo luminescent cell viability assay, 15 μM 7KCh-induced cytotoxicity. The class given is cell-based, human. The conditions noted are these: 1 μM fatty acid + 15 μM 7KCh, 24 hr, CellTiter-Glo. The procedure:
Error bar: standard deviation, n=4.
CellTiter-Glo® Luminescent Cell Viability Assay is a homogeneous method of determining the number of viable cells in culture based on quantitation of the ATP (luminescent signal) present, an indicator of metabolically active cells.
The contents in a plate were mixed for 2 min on an orbital shaker to induce cell lysis.
5) The plate was allowed to incubate at room temperature for 10 min to stabilize luminescent signal.

For test [9], the system named is ARPE19 cells. In words: 7-ketocholesterol-mediated cytotoxicity, 24-well CCK-8 viability and images. The following applies: 24 hr.
[10] abbreviates: 8 μM 7KCh alone or with 1 μM fatty acid.

Take `CCCCC/C=C\C/C=C\C/C=C\C/C=C\CCCC(=O)O` [arachidonic acid, Arachidonic acid]: the “CONC. (μM): lowest concentration required to maintain full cell viability against 7KCh” value (“CONC. (μM)” below) in test [1] was 10 µM. The “effect on 7KCh-mediated mRNA induction (inflammatory response)” value (“effect on 7KCh-mediated mRNA induction” below) in test [2] is reported as “either ineffective or enhanced”.
Regarding `CCCCC/C=C\C/C=C\CCCCCCCC(=O)O` [linoleic acid], the “CONC. (μM)” value in [1] came to 5 µM. The “effect on 7KCh-mediated mRNA induction” value in [2] is recorded as “either ineffective or enhanced”.
For `CC/C=C\C/C=C\C/C=C\CCCCCCCC(=O)O` [α-linolenic acid], the “CONC. (μM)” value in [1] turned out to be 5 µM. Further, in test [2] (setting [10]), the “VEGF mRNA expression” value was “essentially ineffective”, the “IL-6 mRNA expression” value was “somewhat effective”, the “GRP78 mRNA expression” value is listed as “somewhat effective” and the “CHOP mRNA expression” value is listed as “somewhat effective”.
`CCCCCCCCCCCCCCCCCC(=O)O` [stearic acid]: the “effect on secreted VEGF, IL-6, IL-8 protein levels” value in [3] is listed as “no measurable effect”. The “antagonist effect to the cytokine inductions by TNF-α” value in test [4] (1 μM fatty acid + 2 ng/ml TNF-α) was “seemed to enhance”. Further, the “morphological effects on the cells (images)” value in [1] (1 μM + 12 μM 7KCh, 24 hr, FIG. 12C) is on record as “no effect”. For the same compound, in [1] (12 μM 7KCh, 24 hr, 0.1-10 μM fatty acid), the “protective effect against 7KCh-mediated cell death” value was “did not demonstrate any protective effect”. Further, the “antagonistic effect to 7KCh-mediated mRNA induction” value in test [2] (1 μM + 8 μM 7KCh, FIGS. 14, 15) is listed as “did not show any antagonistic effect”. Further, in [2], the “effect on 7KCh-mediated mRNA induction” value is reported as “either ineffective or enhanced”. Also, in [2] (1 μM fatty acid alone, no 7KCh, FIGS. 14, 15), the “effect of fatty acid alone on the mRNA expression of the cytokines” value is given as “no effect”. The “induction of VEGF mRNA” value in [2] (8 μM 7KCh alone or with 1 μM fatty acid, FIG. 14A) was 8.8 fold. Also, the “induction of IL-6 mRNA” value in [2] (8 μM 7KCh alone or with 1 μM fatty acid, FIG. 14C) worked out at 29 fold. The “effect on 7KCh-induced CHOP and GRP78 protein expression” value in [5] is given as “no effect”.
In the case of `CC/C=C\C/C=C\C/C=C\C/C=C\C/C=C\C/C=C\CCC(=O)O` [docosahexaenoic acid], in test [1], the “CONC. (μM)” value was 5 µM.
In the case of `CCCCCCCC[C@@H]1C[C@@H]1CCCCCCCC(=O)O` [dihydrosterculic acid, Dihydrosterculic acid], in test [6], the “cell morphological changes compared to 7KCh alone” value is listed as “more cells compared to 7KCh alone”. Besides, the “increase of cell viability compared to 7KCh alone treatment” value in test [7] is reported as 20%. Moreover, the “increase of cell viability compared to 7KCh alone treatment” value in test [8] is given as 20%. In addition, in test [1], the “CONC. (μM)” value was found to be 10 µM. In test [2] (setting [10]), the “VEGF mRNA expression” value is “essentially ineffective”, the “IL-6 mRNA expression” value is “somewhat effective”, the “GRP78 mRNA expression” value was “somewhat effective” and the “CHOP mRNA expression” value is “somewhat effective”. The “protection of cell confluency and morphology (images)” value in test [9] (0.5 μM co-treatment with 12 μM 7KCh) is given as “no effect”. Also, in [9] (1 μM co-treatment with 12 μM 7KCh), the “protection of cell confluency and morphology (images)” value was “slight effect”. Also, the “protection of cell confluency and morphology (images)” value in [9] (1 μM co-treatment with 12 μM 7KCh, listed as Dihydrosterculic acid) is listed as “do not have such protection effect”.
Turning to TNF-α, in test [4] (2 ng/ml TNF-α alone or with 1 μM fatty acid, FIG. 17D), the “induction of GRP78 mRNA expression” value is 2.5 fold. In [4] (2 ng/ml TNF-α), the “induction of IL-1β mRNA expression” value was determined as 9 fold, the “induction of IL-8 mRNA expression” value was found to be 8 fold and the “induction of IκBα mRNA expression” value turned out to be 3 fold.
